The experiment concerns P388 leukemia ip, CD2F1 mice, survival T/C. In words: NCI In Vivo Anticancer Drug Screen. Data for tumor model P388 Leukemia (intraperitoneal) in CD2F1 (CDF1) mice. Conditions: endpoint: median survival time, higher = longer survival. The essentials:
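Mice carrying the transplanted tumor received test compound or vehicle. Survival was recorded in each group, and the value is the treated-group measurement divided by that of the vehicle-treated control group.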

Where [1] appears, read: dose: 60.0 mg/kg/injection, schedule: Q01DX005 (ip), vehicle: Klucel (hydroxypropylcellulose) (HPC).
[2] abbreviates: dose: 120.0 mg/kg/injection, schedule: Q01DX005 (ip), vehicle: Klucel (hydroxypropylcellulose) (HPC).
The mark [3] stands for this setting: dose: 240.0 mg/kg/injection, schedule: Q01DX005 (ip), vehicle: Klucel (hydroxypropylcellulose) (HPC).
Setting [4] is: dose: 60.0 mg/kg/injection, schedule: Q01DX005 (ip), vehicle: saline with Tween-80.
[5] abbreviates: dose: 120.0 mg/kg/injection, schedule: Q01DX005 (ip), vehicle: saline with Tween-80.
[6] abbreviates: dose: 50.0 mg/kg/injection, schedule: Q01DX009 (ip), vehicle: saline with Tween-80.
The mark [7] stands for this setting: dose: 50.0 mg/kg/injection, schedule: Q01DX009 (ip), vehicle: saline.
[8] abbreviates: dose: 100.0 mg/kg/injection, schedule: Q04DX003 (ip), vehicle: saline with Tween-80.
Setting [9] is: dose: 100.0 mg/kg/injection, schedule: Q01DX009 (ip), vehicle: saline with Tween-80.
Setting [10] is: dose: 12.5 mg/kg/injection, schedule: Q01DX009 (ip), vehicle: saline with Tween-80.
The mark [11] stands for this setting: dose: 25.0 mg/kg/injection, schedule: Q01DX009 (ip), vehicle: saline with Tween-80.
The mark [12] stands for this setting: dose: 25.0 mg/kg/injection, schedule: Q04DX003 (ip), vehicle: saline with Tween-80.

The values below come from PubChem BioAssay AID330 (DTP/NCI, 2004).

“And” between values parts separate entries of the source, which are not always exact repeats. Identical values can stand only once. Toxic doses and inconclusive results are not listed.

As to `O=C(O)/C=C(/CC(=O)O)c1ccc(O)cc1`, the T/C runs as follows: under setting [1], 97 % of control; under setting [2], 102 % of control; under setting [3], 100 % of control.

Take `COc1nc2nc(SC(CC(=O)O)C(=O)c3ccc(Cl)cc3)[nH]c2c2ccccc12` (stereo not given): the T/C under setting [4] was 97 % of control; the T/C under setting [5] is 95 % of control; the T/C (dose: 240.0 mg/kg/injection, schedule: Q01DX005 (ip), vehicle: saline with Tween-80) is 92 % of control.

Consider `O=C1CSC(=O)N1c1cccc(Cl)c1`, for which the T/C is 99 % of control and 97 % of control (dose: 1.56 mg/kg/injection, schedule: Q01DX009 (ip), vehicle: saline); 100 % of control and 103 % of control (dose: 3.12 mg/kg/injection, schedule: Q01DX009 (ip), vehicle: saline); 90 % of control and 96 % of control (dose: 6.25 mg/kg/injection, schedule: Q01DX009 (ip), vehicle: saline); 106 % of control under setting [6]; 89 % of control under setting [7].

With `C[n+]1c(-c2ccc(/C=N/Nc3ccnc(N/N=C/c4ccc(-c5cn6ccccc6[n+]5C)cc4)n3)cc2)cn2ccccc21`, the T/C by setting is: (dose: 30.0 mg/kg/injection, schedule: Q01DX005 (ip), vehicle: saline with Tween-80) 150 % of control; under setting [4], 88 % of control.

Take `c1ccc(-c2nnc3c4[nH]c5ccccc5c4cnn23)cc1`: the T/C (dose: 100.0 mg/kg/injection, schedule: Q01DX001 (ip), vehicle: Klucel (hydroxypropylcellulose) (HPC)) is 105 % of control; the T/C (dose: 200.0 mg/kg/injection, schedule: Q01DX001 (ip), vehicle: Klucel (hydroxypropylcellulose) (HPC)) was 105 % of control; the T/C (dose: 400.0 mg/kg/injection, schedule: Q01DX001 (ip), vehicle: Klucel (hydroxypropylcellulose) (HPC)) is 99 % of control.

For the molecule `Nc1ccccc1-n1nc2ccc3ccccc3c2n1`, the T/C was 100 % of control under setting [8]; 95 % of control (dose: 200.0 mg/kg/injection, schedule: Q04DX003 (ip), vehicle: saline with Tween-80); 95 % of control (dose: 400.0 mg/kg/injection, schedule: Q04DX003 (ip), vehicle: saline with Tween-80).

Regarding `CCN(CCCl)/N=N/c1nc2c([nH]1)c(=O)n(C)c(=O)n2C`, the T/C was 100 % of control (dose: 50.0 mg/kg/injection, schedule: Q01DX005 (ip), vehicle: saline); 105 % of control (dose: 100.0 mg/kg/injection, schedule: Q01DX005 (ip), vehicle: saline); 109 % of control (dose: 200.0 mg/kg/injection, schedule: Q01DX005 (ip), vehicle: saline).

Turning to `O=C1CSC(=O)N1c1ccc(Cl)c(Cl)c1`, the T/C is 94 % of control (dose: 12.5 mg/kg/injection, schedule: Q01DX009 (ip), vehicle: saline); 89 % of control (dose: 25.0 mg/kg/injection, schedule: Q01DX009 (ip), vehicle: saline); 95 % of control under setting [6]; 88 % of control under setting [7]; 87 % of control under setting [9].

In the case of `CCOC(=O)/C(=C\c1ccccc1)O/C(=C/c1ccccc1)C(=O)OCC`, the T/C is 100 % of control (dose: 12.5 mg/kg/injection, schedule: Q04DX002 (ip), vehicle: saline with Tween-80); 97 % of control (dose: 25.0 mg/kg/injection, schedule: Q04DX002 (ip), vehicle: saline with Tween-80); 99 % of control (dose: 50.0 mg/kg/injection, schedule: Q04DX002 (ip), vehicle: saline with Tween-80).

`CN(C)CC1C2CCC(C2)C1O` (stereo not given): the T/C is 98 % of control (dose: 50.0 mg/kg/injection, schedule: Q01DX005 (ip), vehicle: saline with Tween-80); 97 % of control (dose: 100.0 mg/kg/injection, schedule: Q01DX005 (ip), vehicle: saline with Tween-80); 99 % of control (dose: 200.0 mg/kg/injection, schedule: Q01DX005 (ip), vehicle: saline with Tween-80).

For `Cc1ccc(C(=O)C2C(=O)C(=O)OC2C2OC(=O)C(=O)C2C(=O)c2ccc(C)cc2)cc1` (stereo not given), the T/C is, setting by setting: (dose: 60.0 mg/kg/injection, schedule: Q01DX005 (ip), vehicle: saline + Tween-80 + alcohol) 101 % of control; (dose: 120.0 mg/kg/injection, schedule: Q01DX005 (ip), vehicle: saline + Tween-80 + alcohol) 104 % of control; (dose: 240.0 mg/kg/injection, schedule: Q01DX005 (ip), vehicle: saline + Tween-80 + alcohol) 102 % of control.

In the case of `CON(C)CC(Cl)c1ccccc1` (stereo not given), the T/C is, setting by setting: under setting [10], 109 % of control; under setting [11], 109 % of control; under setting [6], 104 % of control.

For the molecule `COc1cc(C2NC(=S)NC2=S)ccc1O` (stereo not given), the T/C runs as follows: under setting [12], 109 % of control; (dose: 50.0 mg/kg/injection, schedule: Q04DX003 (ip), vehicle: saline with Tween-80) 104 % of control; under setting [8], 109 % of control.

With `CC/C(=N\NS(=O)(=O)c1ccc(C)cc1)c1ccc(Br)cc1`, the T/C is 100 % of control (dose: 100.0 mg/kg/injection, schedule: Q04DX002 (ip), vehicle: saline); 105 % of control (dose: 200.0 mg/kg/injection, schedule: Q04DX002 (ip), vehicle: saline); 96 % of control (dose: 400.0 mg/kg/injection, schedule: Q04DX002 (ip), vehicle: saline).

Take `CCN(CC)CCCC(C)NC1CCCc2cc3c(cc21)C(=O)c1ccccc1C3=O` (stereo not given): the T/C runs as follows: (dose: 6.25 mg/kg/injection, schedule: Q04DX003 (ip), vehicle: saline with Tween-80) 98 % of control; (dose: 12.5 mg/kg/injection, schedule: Q04DX003 (ip), vehicle: saline with Tween-80) 94 % of control; under setting [12], 90 % of control.

With `S=P(N1CCCC1)(N1CC1)N1CC1`, the T/C (dose: 2.2 mg/kg/injection, schedule: Q01DX009 (ip), vehicle: saline) was 111 % of control; the T/C (dose: 3.3 mg/kg/injection, schedule: Q01DX009 (ip), vehicle: saline) is 155 % of control; the T/C (dose: 7.5 mg/kg/injection, schedule: Q01DX009 (ip), vehicle: saline) is 177 % of control; the T/C (dose: 11.0 mg/kg/injection, schedule: Q04DX003 (ip), vehicle: saline with Tween-80) is 104 % of control; the T/C under setting [12] was 200 % of control; the T/C (dose: 37.5 mg/kg/injection, schedule: Q04DX003 (ip), vehicle: saline with Tween-80) was 90 % of control.

Turning to `CC(C)CC1COC(=O)C(CC(C)C)NC(=O)COCC(=O)NC(CC(C)C)C(=O)OCC(CC(C)C)NC(=O)COCC(=O)N1` (stereo not given), the T/C is 99 % of control under setting [1], 100 % of control under setting [2] and 101 % of control under setting [3].

On to `COc1cc2c(cc1-c1coc3cc4occc4cc3c1=O)OCO2`, for which the T/C was 87 % of control (dose: 8.75 mg/kg/injection, schedule: Q01DX005 (ip), vehicle: saline with Tween-80); 87 % of control (dose: 35.0 mg/kg/injection, schedule: Q01DX005 (ip), vehicle: saline with Tween-80); 89 % of control (dose: 70.0 mg/kg/injection, schedule: Q01DX005 (ip), vehicle: saline with Tween-80); 99 % of control (dose: 140.0 mg/kg/injection, schedule: Q01DX005 (ip), vehicle: saline with Tween-80).

Consider `CC(Cc1ccc(O)cc1)NCC(O)c1ccc(O)c(O)c1` (stereo not given), for which the T/C is 104 % of control under setting [6] and 109 % of control under setting [9].

For `O=C(OC12CCCCC1C1(CCCCC1)N=N2)c1ccccc1` (stereo not given), the T/C is, setting by setting: under setting [10], 105 % of control; under setting [11], 99 % of control; under setting [6], 111 % of control; under setting [9], 99 % of control; (dose: 200.0 mg/kg/injection, schedule: Q01DX009 (ip), vehicle: saline with Tween-80) 97 % of control.

Turning to `CCOC(=O)C1=C(C(=O)c2ccccc2)C(c2ccccc2[N+](=O)[O-])C(C(=O)c2ccccc2)=C(C(=O)OCC)N1`, the T/C was 101 % of control under setting [4] and 98 % of control under setting [5].

In the case of `Cn1c(=O)ccc2c1nc1ccccc1[n+]2[O-]`, the T/C is 101 % of control under setting [4] and 102 % of control under setting [5].

Consider `CCCCOC(=O)NCNC(=O)OCCCC`, for which the T/C (dose: 50.0 mg/kg/injection, schedule: Q01DX009 (ip), vehicle: Klucel (hydroxypropylcellulose) (HPC)) was 99 % of control; the T/C (dose: 100.0 mg/kg/injection, schedule: Q01DX009 (ip), vehicle: Klucel (hydroxypropylcellulose) (HPC)) is 100 % of control; the T/C (dose: 200.0 mg/kg/injection, schedule: Q01DX009 (ip), vehicle: Klucel (hydroxypropylcellulose) (HPC)) was 94 % of control.
